Measured values taken from ChEMBL document CHEMBL4316653, “Cytotoxic Components from Hypericum elodeoides Targeting RXRα and Inducing HeLa Cell Apoptosis through Caspase-8 Activation and PARP Cleavage” (J Nat Prod, 2019).
pKd: −log10 of the molar value. Activity calls are given as the source filed them. The rule behind the calls is not given here.

Key:
HeLa [1] = test: Cytotoxicity against human HeLa cells assessed as cell viability at 50 uM measured after 48 hrs by MTT assay; type: functional; details: read-out: Activity
HepG2 [2] = test: Cytotoxicity against human HepG2 cells assessed as cell viability at 50 uM measured after 48 hrs by MTT assay; type: functional; details: HepG2, 48 h, read-out: Activity
MCF7 [3] = test: Cytotoxicity against human MCF7 cells assessed as cell viability at 50 uM measured after 48 hrs by MTT assay; type: functional; details: MCF7, 48 h, read-out: Activity
SMMC-7721 [4] = test: Cytotoxicity against human SMMC7721 cells assessed as cell viability at 50 uM measured after 48 hrs by MTT assay; type: functional; details: SMMC-7721, 48 h, read-out: Activity
[5] = target: T1, Retinoic acid receptor RXR-alpha (Homo sapiens) (UniProt P19793); test: (§1) Binding affinity to recombinant human RXRalpha LBD ([…] residues) expressed in Escherichia coli BL21 (DE3) by fluorescence quenching assay
T1 sequence (whole entry): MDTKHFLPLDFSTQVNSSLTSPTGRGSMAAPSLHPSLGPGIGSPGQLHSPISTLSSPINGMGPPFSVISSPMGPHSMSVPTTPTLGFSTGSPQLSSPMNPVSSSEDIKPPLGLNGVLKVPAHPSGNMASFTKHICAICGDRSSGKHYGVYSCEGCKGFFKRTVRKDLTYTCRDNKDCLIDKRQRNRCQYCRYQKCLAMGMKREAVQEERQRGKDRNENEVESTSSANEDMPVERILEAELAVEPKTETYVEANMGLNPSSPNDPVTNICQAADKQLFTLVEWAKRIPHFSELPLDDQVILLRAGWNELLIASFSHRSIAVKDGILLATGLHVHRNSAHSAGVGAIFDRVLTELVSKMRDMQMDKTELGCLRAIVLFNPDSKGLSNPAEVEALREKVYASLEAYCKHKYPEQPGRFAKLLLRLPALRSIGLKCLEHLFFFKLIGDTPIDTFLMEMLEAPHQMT

[6] = target: T1, Retinoic acid receptor RXR-alpha (Homo sapiens); test: Transrepression of GAL4-fused RXRalpha LBD (unknown origin) expressed in 293T cells assessed as inhibition of 9-cis-RA-induced transcription at 50 uM measured after 12 hrs by dual-luciferase reporter gene assay; type: cell-based
[7] = target: T1, Retinoic acid receptor RXR-alpha (Homo sapiens); test: Transrepression of GAL4-fused RXRalpha LBD (unknown origin) expressed in 293T cells assessed as inhibition of 9-cis-RA-induced transcription measured after 12 hrs by dual-luciferase reporter gene assay; type: cell-based
HeLa [8] = test: Induction of apoptosis in human HeLa cells assessed as increase in caspase-3 activity at 20 uM measured after 10 hrs by Caspase-Glo luminescence assay; type: functional, cell-based
HeLa [9] = test: Cytotoxicity against human HeLa cells assessed as inhibition of cell proliferation at 50 uM measured after 48 hrs by MTT assay; type: functional
MCF7 [10] = test: Cytotoxicity against human MCF7 cells assessed as reduction in cell viability at 50 uM measured after 48 hrs by MTT assay; type: functional, cell-based
SMMC-7721 [11] = test: Cytotoxicity against human SMMC7721 cells assessed as reduction in cell viability at 50 uM measured after 48 hrs by MTT assay; type: functional, cell-based
HeLa [12] = test: Induction of apoptosis in human HeLa cells assessed as increase in cleaved PARP expression after 24 hrs by Western blot analysis; type: functional, cell-based
HeLa [13] = test: Induction of apoptosis in human HeLa cells assessed as increase in caspase-8 activity at 20 uM measured after 10 hrs by Caspase-Glo luminescence assay; type: functional, cell-based
[14] = target: T2, Retinoic acid receptor RXR-alpha (Homo sapiens, UniProt P19793); test: as §1
T2 sequence (P19793 whole entry): T1 sequence (whole entry)

HepG2 [15] = test: Cytotoxicity against human HepG2 cells assessed as reduction in cell viability at 50 uM measured after 48 hrs by MTT assay; type: functional, cell-based
HeLa [16] = test: Induction of apoptosis in human HeLa cells assessed as increase in cleaved PARP expression at 20 uM by Western blot analysis; type: functional, cell-based; details: TDE = time-dependent effect
HeLa [17] = test: Induction of apoptosis in human HeLa cells assessed as increase in caspase-8 activity at 50 uM measured after 10 hrs by Caspase-Glo luminescence assay; type: functional, cell-based
HeLa [18] = test: Induction of apoptosis in human HeLa cells assessed as increase in cleaved PARP expression at 50 uM by Western blot analysis; type: functional, cell-based; details: TDE = time-dependent effect
HeLa [19] = test: Induction of apoptosis in human HeLa cells assessed as increase in caspase-3 activity at 50 uM measured after 10 hrs by Caspase-Glo luminescence assay; type: functional, cell-based

Compound: COc1ccc2c(=O)c3cccc(O)c3oc2c1
- viability at 50 µM (HeLa [1]): < 50%
- viability at 50 µM (HepG2 [2]): < 50%
- viability at 50 µM (MCF7 [3]): < 50%
- viability at 50 µM (SMMC-7721 [4]): < 50%

Compound: Cc1cc2c(cc1-c1cc(/C=C/C(=O)O)ccc1O)C(C)(C)CCC2(C)C
- Activity [5]: Dose-dependent effect

Compound: CC(C)c1cc(=O)c2c(O)cc(O)cc2o1
- inhibition [6]: Active

Compound: COc1cc(-c2cc(=O)c3c(O)cc(O)cc3o2)ccc1O
- inhibition [7]: Dose-dependent effect
- inhibition [6]: Active

Compound: CC(C)=CCOc1cc2c(=O)c3c(O)cc(O)cc3oc2cc1O
- Activity (HeLa [8]): inactive
- inhibition at 50 µM (HeLa [9]): > 50%
- Activity (MCF7 [10]): inactive
- Activity (SMMC-7721 [11]): inactive
- Activity (HeLa [12]): Dose-dependent effect
- inhibition [7]: Dose-dependent effect
- Activity (HeLa [13]): Active
- pKd [14]: 4.85
- Activity [5]: Dose-dependent effect
- inhibition [6]: Active
- Activity (HepG2 [15]): inactive
- Activity (HeLa [16]): Tde

Compound: COc1cc([C@H]2OC(=O)[C@H]3[C@@H]2CO[C@@H]3c2ccc(O)c(OC)c2)ccc1O
- viability at 50 µM (HeLa [1]): < 50%
- viability at 50 µM (HepG2 [2]): < 50%
- viability at 50 µM (MCF7 [3]): < 50%
- inhibition [6]: Active
- viability at 50 µM (SMMC-7721 [4]): < 50%

Compound: CC[C@H](C)c1cc(=O)c2c(O)cc(O)cc2o1
- inhibition at 50 µM (HeLa [9]): > 50%
- Activity (MCF7 [10]): inactive
- Activity (SMMC-7721 [11]): inactive
- Activity (HeLa [12]): Dose-dependent effect
- Activity (HeLa [17]): Active
- inhibition [7]: Dose-dependent effect
- Activity (HeLa [18]): Tde
- pKd [14]: 4.17
- Activity [5]: Dose-dependent effect
- inhibition [6]: Active
- Activity (HepG2 [15]): inactive
- Activity (HeLa [19]): inactive
